According to PubChem BioAssay (NCI):
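These data come from cells grown in 96-well plates and exposed to compound for 48 hours at five concentrations. TGI marks complete inhibition of growth.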

Experiments:
Assay in all cases: NCI-60 cell line screen, 48 h
HOP-62 NSCLC = system: HOP-62 NSCLC
LOX IMVI melanoma = system: LOX IMVI melanoma
NCI-H23 lung = system: NCI-H23 lung
SN12C renal = system: SN12C renal
OVCAR-4 ovarian = system: OVCAR-4 ovarian
RXF 393 renal = system: RXF 393 renal
A549 NSCLC = system: A549 NSCLC
K-562 leukemia = system: K-562 leukemia
HOP-92 NSCLC = system: HOP-92 NSCLC
UACC-62 melanoma = system: UACC-62 melanoma
PC-3 prostate = system: PC-3 prostate
SF-539 CNS = system: SF-539 CNS
EKVX NSCLC = system: EKVX NSCLC
SK-MEL-2 melanoma = system: SK-MEL-2 melanoma
KM12 colon = system: KM12 colon
RPMI-8226 leukemia = system: RPMI-8226 leukemia
HCT-116 colon = system: HCT-116 colon
HCC-2998 colon = system: HCC-2998 colon
ACHN renal = system: ACHN renal
A498 renal = system: A498 renal
T-47D breast = system: T-47D breast
SNB-75 CNS = system: SNB-75 CNS
NCI-H522 lung = system: NCI-H522 lung
MALME-3M melanoma = system: MALME-3M melanoma
TK-10 renal = system: TK-10 renal
NCI-H460 lung = system: NCI-H460 lung
MOLT-4 leukemia = system: MOLT-4 leukemia
OVCAR-3 ovarian = system: OVCAR-3 ovarian
HT29 colon = system: HT29 colon
786-0 renal = system: 786-0 renal
SF-268 CNS = system: SF-268 CNS
M14 melanoma = system: M14 melanoma
CAKI-1 renal = system: CAKI-1 renal
MDA-N = system: MDA-N
MDA-MB-435 = system: MDA-MB-435
BT-549 breast = system: BT-549 breast
CCRF-CEM leukemia = system: CCRF-CEM leukemia
HS 578T breast = system: HS 578T breast
COLO 205 colon = system: COLO 205 colon
OVCAR-8 ovarian = system: OVCAR-8 ovarian
SW-620 colon = system: SW-620 colon
UO-31 renal = system: UO-31 renal
SK-OV-3 ovarian = system: SK-OV-3 ovarian
U251 CNS = system: U251 CNS
SK-MEL-5 melanoma = system: SK-MEL-5 melanoma
SR leukemia = system: SR leukemia
NCI-H226 lung = system: NCI-H226 lung
SNB-19 CNS = system: SNB-19 CNS
MDA-MB-231 breast = system: MDA-MB-231 breast
HCT-15 colon = system: HCT-15 colon
IGROV1 ovarian = system: IGROV1 ovarian
OVCAR-5 ovarian = system: OVCAR-5 ovarian
NCI/ADR-RES ovarian = system: NCI/ADR-RES ovarian
SF-295 CNS = system: SF-295 CNS
UACC-257 melanoma = system: UACC-257 melanoma

Measured: TGI

Cc1nc2c(=O)n(C)c(=O)n(C)c2o1
> 100 µM: all assays above
